Assays:
Format in all cases: biochemical
[1] = system: α-chymotrypsin (CT), silica encapsulated single-enzyme nanoparticles SEEN-CT (Example 1); test: Kinetic constants by hydrolysis of MUTMAC, silica encapsulated single-enzyme nanoparticles SEEN-CT (Example 1)
Description: Silica encapsulated single-enzyme nanoparticles were prepared using α-chymotrypsin (CT) as schematically described in FIG. 1. Specifically, the synthesis of the silica encapsulated single-enzyme nanoparticles began with dissolution of the enzyme in an aqueous solution with an organic solvent. CT was dissolved in a 10 mM Bis-Tris propane (pH 7.8) buffer containing 1% isopropanol and 2 mM calcium chloride to a concentration of 1 mg/mL. Subsequently, 2 mM AOT added to hexane of the same volume was mixed with the enzyme solution. After stirring at room temperature for 15 minutes, phase separation was conducted through centrifugation. Only the hexane layer containing the solubilized enzyme was separated and then hexane was evaporated using nitrogen gas to adjust the concentration to 1 mg/mL.
Next, a mixture solution of TMOS:hexane (1:1) was added to the enzyme-containing hexane solution with a volume of 1% thereof and stored at 4° C. for 17 hours.
Then, after storing for 1.5 hours at room temperature and adding a 200 mM sodium phosphate buffer (pH 7.8) corresponding to 2 times the volume of the hexane, the mixture was stirred at 250 rpm for 10 minutes. After phase separation occurred through centrifugation, only the aqueous solution layer was separated. Then, impurities were filtered off through a 100-nm filter.
Subsequently, the enzyme extracted into the aqueous solution phase was stored at 4° C. for 3 days. After the 3 days, unreacted TMOS and AOT molecules were removed while replacing with a 10 mM sodium phosphate buffer using an ultrafiltration device. The as-synthesized silica encapsulated single-enzyme nanoparticles were stored at 4° C. until use.
(§1) The kinetic constants of SEEN-CT (Example 1), RM-SEEN-CT (Comparative Example 1) and free enzyme (free CT) were measured by hydrolysis of MUTMAC. The values were obtained by nonlinear regression based on the least square method.

[2] = system: α-chymotrypsin (CT), reverse micelle-silica encapsulated single-enzyme nanoparticles RM-SEEN-CT (Comparative Example 1); test: Kinetic constants by hydrolysis of MUTMAC, reverse micelle-silica encapsulated RM-SEEN-CT (Comparative Example 1)
Description: Hexane containing 100 mM AOT as surfactant, and a small amount of a 10 mM Bis-Tris propane buffer containing enzymes were added. The amount of the added aqueous solution was adjusted such that its molar concentration was 20 times that of AOT. Then, the enzymes were solubilized to hexane by stirring for 10 minutes. The procedure following the solubilization of the enzymes in hexane was similar to Example 1.
In the reverse micelle method, which was employed for comparison with the method for manufacturing silica encapsulated single-enzyme nanoparticles according to the present disclosure, condensation of the silica precursor proceeds faster because more water molecules are present around the enzyme. As a result, a thicker silica network will be formed and the Michaelis-Menten constant may increase.
as §1

[3] = system: α-chymotrypsin (CT), free enzyme (free CT); test: Kinetic constants by hydrolysis of MUTMAC, free enzyme (Free-CT)
Description: as §1

[4] = SEEN-CT, hydrolysis of MUTMAC, nonlinear regression, least square method
[5] = RM-SEEN-CT, hydrolysis of MUTMAC, nonlinear regression, least square method
[6] = nonlinear regression, least square method

With `Cc1cc(=O)oc2cc(OC(=O)/C=C/c3ccc([N+](C)(C)C)cc3)ccc12` [MUTMAC] the “decrease of catalytic efficiency, kcat/Km, as compared to free CT” value ([1]; SEEN-CT as compared to free CT) was 21%, the kcat/Km ([1]; SEEN-CT, hydrolysis of MUTMAC) was 6.0 ± 0.1 × 10^5M^−1s^−1 and the Km [1, 4] was 42.4 ± 0.1 µM. The kcat [1, 4] was 25.4 ± 0.1 s⁻¹, the “decrease of catalytic efficiency, kcat/Km, as compared to free CT” value ([2]; RM-SEEN-CT as compared to free CT) was “about 48%” and the kcat/Km ([2]; RM-SEEN-CT, hydrolysis of MUTMAC) was 3.9 ± 0.1 × 10^5M^−1s^−1. The Km [2, 5] was 76.8 ± 3.6 µM, the kcat [2, 5] was 30.3 ± 0.8 s⁻¹ and the kcat/Km [3] was 7.6 ± 0.2 × 10^5M^−1s^−1. For the same compound, the Km [3, 6] was 41.8 ± 0.1 µM and the kcat [3, 6] was 31.8 ± 0.8 s⁻¹.

From patent publication US9458448B2, “Manufacturing method for silica encapsulated single-enzyme nanoparticles and single-enzyme nanoparticles manufactured by means of method” (Korea University Research and Business Foundation, priority 2011, dated 2016)
